Tested on: primary mouse cortical cultures
Test: Confocal imaging of calcium transients and mitochondrial membrane potential
Type: cell-based
Settings: for number of neurons displaying elevated [Ca2+]c / oscillations: 3 μg/ml (~10 μM); for number / frequency of [Ca2+]c oscillations in cortical neurons: Q 3 μg/ml added after pretreatment with E 3 μg/ml
Protocol: Embryonic day 16 timed pregnant CD1 out-bred mice were obtained from Charles River Laboratories (Charles River; QC, Canada). Primary cortical neuron cultures were prepared from cerebral cortices of wild type (WT) CD1 mouse embryos as described previously, with the following modifications. Pregnant CD1 females were heavily anaesthetized with isoflurane vapor (Benson Medical Industries, Inc., Markham, ON) before being euthanized by decapitation. The embryonic day 16 (E16) fetuses were immediately removed from the sacrificed pregnant females by cesarean section and placed in ice-cold Hank's Balanced Salt Solution (HBSS) (GIBCO; Invitrogen, Amarillo, Calif.). The meninges were removed from the brains and cortices were isolated under a dissecting microscope. The cortices from each embryo were placed in individual wells of a 24-well plate (Corning; Lowell, Mass.), containing 1 ml of ice-cold PBS (GIBCO; […] Under sterile conditions, the tissue was briefly minced, transferred to 15 ml sterile conical tubes (Corning; Lowell, Mass.) and centrifuged at 350×g for 3 min at room temperature. The dissecting solution was discarded and the cortical neurons were then dissociated trituration with fire-polished glass pipettes followed by incubating in 1 ml of 0.1% trypsin solution (0.1% w/v trypsin (Invitrogen, Amarillo, Calif.) in PBS with 1 mM Mg^2+ and 13 mM glucose) at 37° C. for 15 min. The trypsinization was inhibited by the addition of 0.5 ml of trypsin inhibitor solution that also contained DNase I (0.06% w/v trypsin inhibitor (Invitrogen; Amarillo, Calif.) and 0.01% DNase I (Invitrogen; […] The tubes were mixed briefly and the cells were centrifuged at 350×g for 3 min at room temperature. The trypsin and inhibitor solutions were discarded and each cell pellet was suspended in 1 ml of cortical neuron plating medium (Neurobasal medium (Invitrogen, Amarillo, Calif.) with 10% fetal bovine serum (GIBCO; Invitrogen; Amarillo, Calif.), 2% B27 supplement, 1 mM L-glutamine, and 1% Gentamycin (Invitrogen; […] Cortical neurons were plated in 96-well plates (Corning; Lowell, Mass.) that were pre-coated with poly-D-lysine (PDL; Sigma-Aldrich; Oakville, ON) according to the procedure described by the manufacturer. Briefly, plates were coated immediately before use with 100 μg/ml PDL for 5-10 min (50 μl/well), washed three times with tissue-culture grade water and left to dry for 2 h before cells were introduced. Cortical neurons were plated at a concentration of 1×10^6 cells/ml (100 µl/well) and medium was completely changed the day after plating to serum-free cortical neuron medium (Neurobasal medium with 2% B27 supplement, 5 mM HEPES, 0.5 mM L-glutamine, and 20 μg/ml Gentamycin), which was replaced every 3 days in culture. Cultures were maintained in a humidified, 37° C. incubator with 5% CO2. Experiments were performed on the eighth day in vitro (DIV10). For measurements of mitochondrial membrane potential (ΔΨm), cells were loaded with 25 nM tetrannethylrhodamine methyl ester (TMRM) for 30 min at room temperature and the dye was present during the experiment. TMRM is used in the redistribution mode to assess ΔΨm with a reduction in TMRM fluorescence indicating mitochondrial depolarization. Neurons were loaded for 30 min at room temperature with X-rhod-1 AM (0.5 μM) and Fluo-3 AM (0.5 μM) (Molecular Probes, Invitrogen) prior to imaging in HEPES-buffered salt solution (HBSS) composed of (mM): 156 NaCl, 3 KCl, 2 MgSO4, 1.25 KH2PO4, 2 CaCl2, 10 glucose and 10 HEPES, pH adjusted to 7.35 with NaOH. Confocal images were obtained using a 510 CLSM (Zeiss, Thornwood, N.Y.) equipped with a META detection system and a […] oil-immersion objective. The 488 nm Argon laser line was used to excite fluo-3 fluorescence, which was measured using a bandpass filter from 505 to 550 nm. Illumination intensity was kept to a minimum (at 0.1-0.2% of laser output) to avoid phototoxicity and the pinhole was set to give an optical slice of 2 μm. […]

[1] = ten minutes after addition, fluo-3
[2] = sequential addition of 0.3 and 1 μM

Compound	number of neurons displaying [Ca2+]c oscillations (1 μg/ml (~3 μM), ten minutes after addition, fluo-3)	number of neurons displaying [Ca2+]c oscillations (1 μg/ml (~3 μM), ten minutes after addition, fluo-3, listed as quercetin)	number of neurons displaying elevated [Ca2+]c / oscillations [1]	number of neurons displaying elevated [Ca2+]c / oscillations (ten minutes after addition, fluo-3, listed as quercetin)	frequency of neuronal [Ca2+]c oscillations (1 and 3 μg/ml (~3-10 μM), concentration-dependent)	mitochondrial membrane potential (TMRM) (1 and 3 μg/ml (~3 and 10 μM))	[Ca2+]m (mitochondrial) oscillations, x-rhod-1 (Q 3 μg/ml added after E 3 μg/ml)	number of neurons displaying [Ca2+]c oscillations (Q 3 μg/ml added after E 3 μg/ml, ten minutes later)	number of neurons displaying [Ca2+]c oscillations (Q 3 μg/ml added after E 3 μg/ml, ten minutes later, listed as quercetin)	number / frequency of [Ca2+]c oscillations in cortical neurons	[Ca2+]c oscillations (fluo-4) [2]	basal [Ca2+]c [2]	mitochondrial membrane potential (TMRM) [2]	[Ca2+]c oscillations in a cortical neuron (3 μg/ml (~10 μM) alone)	[Ca2+]m (mitochondrial) oscillations, x-rhod-1 (3 μg/ml (~10 μM) alone)	[Ca2+]c oscillations in a cortical neuron (3 μg/ml (~10 μM) alone, listed as epicatechin)	number of neurons displaying elevated [Ca2+]c / oscillations (ten minutes after addition, fluo-3, listed as epicatechin)
O=c1c(O)c(-c2ccc(O)c(O)c2)oc2cc(O)cc(O)c12 [Q]	small increase	increased	further elevation	increased	increased the frequency	modestly elevated	induction	did increase	increased	supra-additive increase	concentration dependent stimulation	moderate rise	elevation				
Oc1cc(O)c2c(c1)O[C@H](c1ccc(O)c(O)c1)[C@H](O)C2 [E, (2R,3R)-2-(3,4-dihydroxyphenyl)-3,4-dihydro-2H-chromene-3,5,7-triol]			no change							enhanced the frequency				did not trigger	did not trigger	did not increase	did not increase

Source: patent publication US20170027902A1, “Use of a Composition Comprising a Flavonol, A Flavonoid, and a Fatty Acid in the Treatment of Oxidative Injuries Due to Mitochondrial Dysfunction” (priority 2014, published 2017)
